Tests used:
[1] = tested on: mesothelioma cells (Mero-41); experiment: Matrigel on-top (MoT) 3D culture, CellTiter-Glo cell viability, 9x9 combination matrix; format: cell-based; details: MEK inhibitor in combination with FAK inhibitor VS-6063, 96 hours incubation, compared with Bliss, HSA and Loewe models
Experimental: (§1) Cell Lines: Cancer cell lines were purchased from American Type Culture Collection (Manassas, VA) and cultured under ATCC recommended standard culture conditions. Mero-41 (mesothelioma cell line) were purchased from Sigma-Aldrich (St. Louis, MO) and cultured under ECACC recommended standard culture conditions. […] TOV-21G (ovarian clear cell carcinoma cell line) were cultured under ECACC recommended standard culture conditions. Growth media for all cell lines were supplemented with penicillin (100 units/ml)/streptomycin (100 μg/ml).
(§2) Compound were used at the top concentration 10 uM in a 2-fold dilution. Paclitaxel was dosed at the top concentration 1 uM in a 3-fold dilution.
(§3) A ‘Matrigel on-top’ (MoT) assay where cells were propagated in a 3-dimentional culture was used. Cells were plated above a dense base layer of Matrigel (BD Biosciences, Franklin Lakes, N.J.), diluted 1:1 with culture medium. Single cell preparations were resuspended in dilute Matrigel (1:50 in culture medium) and seeded to cover the Matrigel base layer. This ensured that ovarian cancer cells were surrounded with extracellular matrix (ECM) components, of which collagen and laminin are the major Matrigel constituents. Cells were seeded in a density of 500 cells per well in 384-well black Ultra-low attachment plates with clear bottom (Corning, Tewksbury MA). […] Cell survival/proliferation was assessed by CellTiter-Glo® Luminescent Cell Viability Assay (Promega, Madison, Wis.).
(§4) Combination effects were evaluated by comparing the averaged viability/inhibition to three different null reference models derived from the single agent activities.
(§5) The expected additivity effect is the statistical expectation for the combined effect from independent inhibitors: Mathematically, Bliss (FU)=FUA1 X FUA2, where FUA1 and FUA2 are the unaffected fraction when treated with compounds Al and A2, respectively.

[2] = tested on: breast cancer cells (MDA-MB-231); experiment: as above; format: cell-based; details: MEK inhibitor in combination with FAK inhibitor VS-6063, 96 hours incubation, compared with Bliss, HSA and Loewe models
Experimental: as §1, §2, §3, §4, §5

Compound	combination effect on cell viability [1]	combination effect on cell viability [2]
Cn1cnc2c(F)c(Nc3ccc(Br)cc3Cl)c(C(=O)NOCCO)cc21 [AZD-6244]	more than additive effect	–
O=C(NOCCO)c1ccc2cncn2c1Nc1ccc(I)cc1F [GDC-0623]	more than additive effect	more than additive effect
O=C(NC[C@H](O)CO)c1ccncc1Nc1ccc(I)cc1F [pimasertib]	more than additive effect	more than additive effect
cobimetinib	more than additive effect	more than additive effect
trametinib	more than additive effect	more than additive effect

Reference: patent US10406158B2, “Methods and compositions for treating abnormal cell growth” (Verastem, Inc., priority 2014, dated 2019)
